According to ChEMBL document CHEMBL1201862, “PubChem BioAssay data set” (2004):
Activity calls are given as the source filed them.

Tests used:
[1] = viability loss in THP-1 monocytes – THP-1 cells, cytotoxicity control for Vif-APOBEC3G degradation inhibitor project, dose response (AID 1117359); format: functional; conditions: THP-1
[2] = HEK-293T cell viability reduction – luminescence, B-cell screen hits, cytotoxicity control for BCR NF-kB inhibitor project, dose response (AID 489021); format: functional, cell-based;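 also: HEK-293T cells carrying an NF-kB luciferase reporter; cells exposed to compound for about 14 hours before viability readout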
[3] = viability inhibitors of stage V gametocytes – luminescence, dose response (AID 1117278); format: functional, cell-based;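 also: gametocytes exposed to compound for 24 hours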
[4] = viability loss in human Jurkat cells – cell-based, luminescence, cytotoxicity control for P. falciparum gametocyte viability project, dose response (AID 1117277); format: functional;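 also: potency reflects loss of cellular ATP meaning fewer viable cells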
[5] = molecular target: Disintegrin and metalloproteinase domain-containing protein 17 (Homo sapiens, UniProt P78536); test: exosite inhibitors of ADAM17, dose response, biochemical (AID 743260)
[6] = inhibition of ADAM10 peptide cleavage – biochemical, FRET peptide substrate, recombinant human ADAM10, selectivity assay for ADAM17 exosite inhibitor project, dose response (AID 743259);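 also: ADAM10 enzyme cleaving a FRET peptide substrate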
[7] = molecular target: Heat shock protein HSP 90-alpha (Homo sapiens, UniProt P07900); test: Luminescence-based dose response biochemical high throughput screening assay for inhibitors of the Heat Shock Protein 90 (HSP90). [Related pubchem assays: 1831 (Summary AID.), 1846 (Confirmation screen.), 1789 (Primary screen.)]
[8] = HIV-1 Vif–A3G interaction blockers – biochemical, TR-FRET, GST-Vif 1-94, biotin-A3G peptide, dose response retest, primary screen (AID 1117319); format: functional;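 also: TR-FRET signal of purified GST-Vif binding a biotinylated A3G peptide; inhibitors lower the FRET signal by blocking Vif and A3G binding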
HeLa = test: ATP-based viability loss in HeLa cells – cell-based, CellTiter-Glo luminescence, cherry-pick samples, cytotoxicity control for MITF activator project, dose response (AID 540259); format: functional; conditions: Homo sapiens
[9] = luciferase reporter signal suppression in cells – H4 neuroglioma cells, luminescence, dose response (AID 1990); format: functional, cell-based
[10] = Luminescence Cell-Based Dose Response HTS to Identify Inhibitors of 5'UTR Stem-Loop Driven Prion Protein mRNA Translation in H4 Neuroglioblastoma Cells. [Related pubchem assays: 1827 (Project Summary), 1813 (Primary HTS)]; format: functional
[11] = alpha-synuclein stem-loop luciferase translation blockers – H4 neuroglioma cells, luminescence, confirmation (AID 1988); format: functional, cell-based
[12] = viability of PTEN-deleted HCT116 cells – cell-based, HCT116 PTEN knockout, dose response (AID 1047); format: functional;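 also: HCT116 colon tumor cells with PTEN knocked out; cells exposed to compound for 60 hours before readout; potency for loss of cell viability measured by luminescence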
[13] = viability of HCT116 lacking mutant beta-catenin – cell-based, human colon tumor, dose response (AID 1045); format: functional;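 also: HCT116 colon tumor cells with beta catenin knocked out; cells exposed to compound for 60 hours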
[14] = molecular target: T1, Corticotropin-releasing factor receptor 2/Corticotropin-releasing factor-binding protein (Homo sapiens, UniProt P24387+Q13324); test: activators of CRF receptor 2 with binding protein – uHTS hits, confirmation (AID 602473); format: functional; conditions: read-out: EC50_Mean
T1 sequence (Q13324 whole entry): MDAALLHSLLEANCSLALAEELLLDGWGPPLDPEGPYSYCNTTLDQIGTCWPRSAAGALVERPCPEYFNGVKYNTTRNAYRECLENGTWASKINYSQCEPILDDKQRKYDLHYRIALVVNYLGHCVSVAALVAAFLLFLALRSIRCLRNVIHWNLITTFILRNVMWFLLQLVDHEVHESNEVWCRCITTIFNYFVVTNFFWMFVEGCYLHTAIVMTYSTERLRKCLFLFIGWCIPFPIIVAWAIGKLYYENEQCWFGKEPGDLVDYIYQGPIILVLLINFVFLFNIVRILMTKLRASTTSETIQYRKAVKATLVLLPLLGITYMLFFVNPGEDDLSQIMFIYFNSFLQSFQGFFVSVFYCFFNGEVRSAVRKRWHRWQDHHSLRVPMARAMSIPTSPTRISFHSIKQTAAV
T1 sequence (P24387 whole entry): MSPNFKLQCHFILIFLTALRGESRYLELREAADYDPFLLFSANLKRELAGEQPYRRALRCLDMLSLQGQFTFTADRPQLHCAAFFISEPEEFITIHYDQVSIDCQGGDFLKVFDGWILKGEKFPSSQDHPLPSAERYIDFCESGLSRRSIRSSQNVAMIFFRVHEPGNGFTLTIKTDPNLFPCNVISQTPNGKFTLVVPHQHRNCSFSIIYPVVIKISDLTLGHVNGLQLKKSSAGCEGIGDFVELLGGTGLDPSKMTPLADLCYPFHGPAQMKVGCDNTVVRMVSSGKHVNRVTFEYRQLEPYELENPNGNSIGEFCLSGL

[15] = blockers of HIV-1 envelope-mediated cell-cell fusion – cherry-pick, dose response (AID 652057); format: functional, cell-based
[16] = blockers of HIV-1 ZM109 envelope-driven cell-cell fusion – HeLa effector, CEM target cells, luciferase, cherry-pick, dose response (AID 652058); format: functional, cell-based;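 also: luciferase signal from HIV-1 Env mediated cell-cell fusion of effector and target cells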
[17] = HIV-1 AD8 envelope cell-cell fusion blockers – cherry-pick, dose response (AID 652062); format: functional, cell-based;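 also: luciferase signal from cell-cell fusion driven by HIV-1 clade B AD8 Env; potency is for inhibitors of fusion seen as a drop in luminescence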
H9c2 = test: cells; format: functional, cell-based; conditions: Rattus norvegicus, H9c2, Myocardium;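 also: confirmatory concentration-response retest of ultra-high-throughput screening hits for modulation of myocardial damage; cell death induced by hydrogen peroxide oxidative stress; compound pretreatment for 60 min then peroxide exposure for 2 h; potency is for protecting the cells against peroxide damage rather than for killing them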
[18] = reduced cellular PGC1a acetyl-lysine signal – cell-based, cherry-picked samples, dose response (AID 720514); format: functional;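 also: potency may reflect raised or lowered acetylation signal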
[19] = Luminescence Cell-Based Dose Retest to Confirm Inhibitors of Cancer Stem Cells. [Related pubchem assays (depositor defined):AID2717, AID2721]; format: functional; conditions: Homo sapiens
BJ [20] = test: BJ-TERT fibroblast viability loss – cell-based, RAS-independent, luminescence, dose response (AID 1933); format: functional; conditions: Homo sapiens
BJ [21] = test: cells; format: functional, cell-based; conditions: Homo sapiens
BJ [22] = test: BJ-TERT-LT-ST fibroblast viability loss – cell-based, RAS-independent, luminescence, dose response (AID 1935); format: functional; conditions: Homo sapiens;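 also: BJ fibroblasts immortalized with TERT plus LT and ST oncogenes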
[23] = DRD fibroblast viability loss – cell-based, non-viral oncogenic, luminescence, dose response (AID 1934); format: functional; conditions: Homo sapiens
INS1 = test: INS-1E survival protection against cytokine death – cell-based, luminescence, retest, dose response (AID 449756); format: functional; conditions: Rattus norvegicus;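 also: cell death triggered by IL-1 beta plus TNF-alpha plus IFN-gamma mixture; protective hits raise ATP signal compared with cytokine alone wells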
Caspase-6 = molecular target: T2, Caspase-6 (Homo sapiens, UniProt P55212); test: inhibition of CASP6 peptide cleavage – biochemical, VEID-R110 fluorescence, cherry-pick, dose response (AID 720632)
T2 sequence (P55212 whole entry): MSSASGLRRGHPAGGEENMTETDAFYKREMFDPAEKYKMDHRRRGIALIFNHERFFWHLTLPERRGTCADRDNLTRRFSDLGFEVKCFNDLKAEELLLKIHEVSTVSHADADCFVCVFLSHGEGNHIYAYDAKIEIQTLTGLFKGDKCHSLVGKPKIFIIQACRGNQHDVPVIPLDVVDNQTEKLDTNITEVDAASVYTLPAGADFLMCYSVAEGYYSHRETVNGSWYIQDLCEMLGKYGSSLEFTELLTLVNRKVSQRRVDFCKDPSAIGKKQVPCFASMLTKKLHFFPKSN

Chain of Disintegrin and metalloproteinase domain-containing protein 17 (P78536 whole entry, the tested form may be a part): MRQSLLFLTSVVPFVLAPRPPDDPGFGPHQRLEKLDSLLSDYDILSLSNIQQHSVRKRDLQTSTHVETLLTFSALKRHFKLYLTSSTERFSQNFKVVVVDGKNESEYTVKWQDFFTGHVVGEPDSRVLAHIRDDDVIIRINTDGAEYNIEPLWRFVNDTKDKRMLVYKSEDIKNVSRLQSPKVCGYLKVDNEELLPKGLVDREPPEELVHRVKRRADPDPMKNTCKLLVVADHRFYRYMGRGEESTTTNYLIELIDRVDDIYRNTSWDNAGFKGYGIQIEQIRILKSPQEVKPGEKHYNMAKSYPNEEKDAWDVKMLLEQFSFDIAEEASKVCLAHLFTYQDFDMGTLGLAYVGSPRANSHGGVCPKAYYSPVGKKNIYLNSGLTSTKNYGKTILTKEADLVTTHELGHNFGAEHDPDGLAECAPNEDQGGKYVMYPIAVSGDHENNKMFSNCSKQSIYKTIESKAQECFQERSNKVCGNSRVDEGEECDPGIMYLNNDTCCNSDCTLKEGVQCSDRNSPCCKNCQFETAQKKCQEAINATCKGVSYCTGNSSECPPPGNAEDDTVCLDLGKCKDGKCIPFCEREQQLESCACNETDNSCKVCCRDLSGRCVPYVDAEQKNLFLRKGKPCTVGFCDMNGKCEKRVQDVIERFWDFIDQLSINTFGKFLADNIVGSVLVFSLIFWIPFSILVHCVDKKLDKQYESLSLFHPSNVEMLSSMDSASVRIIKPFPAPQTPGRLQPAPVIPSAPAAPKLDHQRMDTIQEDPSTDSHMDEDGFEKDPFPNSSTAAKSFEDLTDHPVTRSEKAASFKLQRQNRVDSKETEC

CN(CCc1ccccc1)C(=O)c1ccc(NC(=O)Cc2ccc(NC(=O)C3CCN(C(=O)CCc4ccccc4)CC3)cc2)cc1
CC50 [1]: > 40 µM (active)

Cc1csc(NC(=O)CCc2c(C)nc3cc(-c4ccc(Cl)cc4)nn3c2C)n1
IC50 [2]: > 80 µM (inactive)

Cc1cc(C)n(-c2ccc(C(=O)NCc3cccs3)cc2)n1
IC50 [3]: > 109 µM (inactive) | IC50 [4]: > 83.3 µM (inactive)

CC1(O)N(Cc2ccccc2)C(=O)OC12CCCCC2 (stereo not given)
IC50 [5]: > 69.5 µM (inactive) | IC50 [6]: > 69.5 µM (inactive)

Nc1cc(OC(=O)c2c(F)cccc2Cl)nn1S(=O)(=O)c1ccccc1
IC50 [5]: > 69.5 µM (inactive) | IC50 [6]: > 69.5 µM (inactive)

CC1=NN(c2ccccc2)C(=O)/C1=C\N(O)c1ccccc1
IC50 [7]: 2.78 µM (active)

COc1ccc(/C=C/c2noc(-c3ccccc3OC(C)=O)n2)cc1
IC50 [7]: 3.29 µM (active)

COc1ccc(CC(=O)OCC(=O)NCc2ccco2)cc1OC
CC50 [1]: > 40 µM (active) | IC50 [8]: > 100 µM (active)

c1ccc(-c2cnnc(N3CCCCC3)n2)cc1
AC50 (HeLa): 191 µM (active)

Brc1ccc2nc(N3CCN(c4ccccc4)CC3)sc2c1
IC50 [3]: > 109 µM (inactive) | IC50 [4]: > 83.2 µM (inactive)

Cc1cccc2c1-c1sc(C(=O)N3CCCCC3)cc1CO2
AC50 (HeLa): > 350 µM (inactive)

Cc1c(CCC(=O)NCCCn2ccnc2)c(=O)oc2c(C)c3oc4c(c3cc12)CCCC4
EC50 [9]: 13.7 µM (active) | EC50 [10]: 17.8 µM (active) | EC50 [11]: 14.6 µM (active) | IC50 [2]: 63.6 µM (inactive)

CCC(C)c1ccc(OCc2ccc(C(=O)OC)o2)cc1 (stereo not given)
IC50 [7]: 2.29 µM (active)

Clc1cccc(-c2cc3nc4c(c(N5CCNCC5)n3n2)CCCC4)c1
EC50 [12]: 8.22 µM (active) | EC50 [13]: 7.97 µM (active)

Cc1ccc2c(c1)[C@H]1[C@H](CO2)[C@H](c2ccccc2)[C@]2(C)C(=O)N(Cc3ccc(Cl)cc3)CC(=O)N12
IC50 [5]: > 69.5 µM (inactive) | IC50 [6]: > 69.5 µM (inactive)

C[C@H]1CC[C@@H]2[C@@H](C)[C@H]3[C@H](C[C@H]4[C@@H]5CC=C6C[C@@H](O[C@@H]7O[C@H](CO)[C@H](O)[C@H](O[C@@H]8O[C@H](CO)[C@@H](O)[C@H](O)[C@H]8O)[C@H]7O[C@@H]7O[C@@H](C)[C@H](O)[C@@H](O)[C@H]7O)CC[C@]6(C)[C@H]5CC[C@]34C)N2C1
EC50 [9]: 13.5 µM (active) | EC50 [10]: > 120 µM (not active) | EC50 [11]: > 120 µM (not active) | EC50 [12]: 25.2 µM (active) | EC50 [13]: 22.1 µM (active) | EC50 [14]: 9.48 µM (active)

Cc1ccc(S(=O)(=O)N(CC(=O)N/N=C/c2cccc3c2OCCO3)c2ccccc2F)cc1
IC50 [8]: > 100 µM (active)

Cc1cccc(C)c1NC1=NC(=S)N(c2ccc(C(=O)O)cc2)C12CCCCC2
IC50 [3]: > 109 µM (inactive) | IC50 [4]: > 83.3 µM (inactive)

CCCS(=O)(=O)Nc1cccc(-c2ccc3nnc(C)n3n2)c1
IC50 [2]: > 80 µM (inactive)

O=C(C[C@@H]1CC[C@H]2[C@@H](COC[C@@H](O)CN2Cc2ccc(Oc3ccccc3)cc2)O1)N1CCN(c2ccccc2)CC1
AC50 [15]: 22.3 µM (active) | AC50 [16]: 20.4 µM (active) | AC50 [17]: 4.07 µM (active)

CC(=O)Nc1ccc(Nc2nc(-c3sc(NC(C)=O)nc3C)cs2)cc1
IC50 [2]: 20.6 µM (inactive) | IC50 (H9c2): > 79 µM (inactive)

COc1ccccc1NC(=O)N[C@@H]1C=C[C@H](CC(=O)N[C@H](C)c2ccccc2)O[C@H]1CO
AC50 [15]: 8.31 µM (active) | AC50 [16]: 7.16 µM (active) | AC50 [17]: 6.98 µM (active)

O=C(CCN1CCOCC1)NCC(=O)Nc1ccc(Br)cc1C(=O)c1ccccc1
IC50 [8]: > 100 µM (active)

Cc1nc(Nc2ccc(S(N)(=O)=O)cc2)sc1C(=O)Nc1ccccc1
AC50 [18]: 3.05 µM (active) | CC50 [1]: > 40 µM (active)

Cc1ccc(-c2csc3ncn(CC(=O)N4CCOCC4)c(=O)c23)cc1
IC50 [3]: > 109 µM (inactive) | IC50 [4]: > 83.3 µM (inactive)

O=C(Nc1cccc(-c2csc(-c3ccccc3)n2)c1)c1cccs1
AC50 [19]: 3.38 µM (active) | IC50 [5]: > 69.5 µM (inactive) | IC50 [6]: > 69.5 µM (inactive)

Cc1cc2c(C)cc(O)nc2cc1NC(=O)CCl
EC50 (BJ [20]): 17.7 µM (active) | EC50 (BJ [21]): > 150 µM (not active) | EC50 (BJ [22]): > 150 µM (not active) | EC50 [23]: 42.2 µM (active)

CC(=O)CSc1ccc(-c2nc3ccccc3[nH]2)cn1
IC50 [7]: 8.09 µM (active) | AC50 (INS1): 5.24 µM (active)

O=S(=O)(Nc1ccncc1)c1ccccc1
IC50 [3]: > 109 µM (inactive) | IC50 [4]: > 83.3 µM (inactive)

O=C(O)c1ccc(COc2c(F)c(F)c(F)c(F)c2F)o1
IC50 [8]: > 100 µM (active)

COc1ccc(S(=O)(=O)NCC(c2ccco2)N2CCc3ccccc32)cc1 (stereo not given)
IC50 [5]: > 69.5 µM (inactive) | IC50 [6]: 38.4 µM (inactive)

CCc1ccc(-c2nc(CN3CCC(C(=O)NCCN(CC)c4ccccc4)CC3)c(C)o2)cc1
EC50 [12]: 7.82 µM (active) | EC50 [13]: 6.8 µM (active)

CNS(=O)(=O)c1cccc(C(=O)OCC(=O)N2c3ccccc3NC(=O)C2(C)C)c1
AC50 (Caspase-6): 3 µM (active)
